Source: article PMC2867455 (Journal of medicinal chemistry, 2010)

Legend:
[1] = target: T1, PFTase (Saccharomyces cerevisiae, UniProt P22007+P29703); experiment: PFTase in vitro continuous-fluorescence assay; format: biochemical
T1 sequence (P22007 1-431): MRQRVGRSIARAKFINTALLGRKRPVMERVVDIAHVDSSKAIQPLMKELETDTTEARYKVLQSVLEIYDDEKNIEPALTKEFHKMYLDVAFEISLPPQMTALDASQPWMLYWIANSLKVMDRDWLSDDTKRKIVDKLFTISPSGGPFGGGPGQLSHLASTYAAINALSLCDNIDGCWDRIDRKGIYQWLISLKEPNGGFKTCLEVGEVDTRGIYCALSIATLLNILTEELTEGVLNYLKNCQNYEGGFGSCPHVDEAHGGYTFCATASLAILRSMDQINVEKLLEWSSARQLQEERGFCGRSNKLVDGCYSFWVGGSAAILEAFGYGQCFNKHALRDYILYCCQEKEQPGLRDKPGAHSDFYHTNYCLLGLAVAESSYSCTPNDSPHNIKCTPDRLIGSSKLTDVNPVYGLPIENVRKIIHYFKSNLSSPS
T1 sequence (P29703 1-316): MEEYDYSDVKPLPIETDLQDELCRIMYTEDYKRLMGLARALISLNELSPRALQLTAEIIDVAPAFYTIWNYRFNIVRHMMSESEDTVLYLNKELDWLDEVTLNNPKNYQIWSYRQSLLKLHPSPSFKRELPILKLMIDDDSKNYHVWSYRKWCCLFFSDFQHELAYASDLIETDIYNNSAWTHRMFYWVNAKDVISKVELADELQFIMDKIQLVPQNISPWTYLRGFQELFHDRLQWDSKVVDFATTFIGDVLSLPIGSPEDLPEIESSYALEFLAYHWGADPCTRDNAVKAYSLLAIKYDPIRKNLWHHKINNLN

[2] = tested on: MDCK cells
[3] = tested on: mouse models of leukemia and melanoma; conditions: intra-peritoneal delivery; cited from earlier work
[4] = tested on: GFP-H-Ras; experiment: Cell based analysis of GFP-H-Ras processing in MDCK cells
[5] = target: PFTase; conditions: read-out: IC50 for PFTase; cited from earlier work
[6] = at concentrations as high as 100 µM, 0.04% Triton X-100

In the case of `Clc1ccccc1C(c1ccccc1)(c1ccccc1)n1ccnc1` [Clotrimazole], the “PFTase inhibition (in words)” value [1, 6] is reported as “little to no inhibition”.

In the case of `Clc1ccc(COC(Cn2ccnc2)c2ccc(Cl)cc2Cl)c(Cl)c1` (stereo not shown) [Miconazole], the toxicity to cells [2] is given as “toxicity and cell death”, the “survival in mouse models of leukemia and melanoma” value [3] is given as “promote survival” and the “inhibition of GFP-H-Ras processing” value ([4]; 10 µM, 48 h, cells remaining alive) is given as “significant inhibition of GFP-H-Ras processing”.

In the case of Tetraiodophenolphthalein [TPIT], the “PFTase inhibition (in words)” value ([1]; continuous fluorescence assay) is reported as “not an inhibitor of PFTase”.

For `OC(Cn1cncn1)(Cn1cncn1)c1ccc(F)cc1F` [Fluconazole], the “PFTase inhibition (in words)” value [1, 6] was “little to no inhibition”.

In the case of `CC(=O)OCC(=O)[C@@]1(O)CC[C@H]2[C@@H]3CCC4=CC(=O)CC[C@]4(C)[C@H]3C(=O)C[C@@]21C` [Cortisone acetate], the IC50 [5] is given as 14 µM.

For `CC(=O)N1CCN(c2ccc(OCC3COC(Cn4ccnc4)(c4ccc(Cl)cc4Cl)O3)cc2)CC1` (stereo not shown) [Ketoconazole], the “PFTase inhibition (in words)” value [1, 6] was “little to no inhibition”.

In the case of `CCOC(=O)N1CCC(=C2c3ccc(Cl)cc3CCc3cccnc32)CC1` [Loratadine], the “inhibition of GFP-H-Ras processing” value ([4]; 25 µM, 24 h) is reported as “appreciable inhibition of GFP-H-Ras processing” and the “inhibition of prenylation (GFP-H-Ras)” value ([4]; concentrations lower than 25 µM, 24 h) is reported as “did not manifest observable inhibition of prenylation”.
